Assay results: patent US7521569B2, “Process to obtain dibenzylbutyrolactonic lignans, process to obtain synthetic derivatives from lignans bearing anti-Chagas chemoprophylactic and therapeutical activities” (Fundação De Amparo À Pesquisa Do Estado de São Paulo, priority 2002, dated 2009)
≈ marks a conversion by molar mass, not a printed value. Where two headings read alike, the source gives them in different places.

System: blood tripomastigote forms of different lines of Trypanosoma cruzi
Experiment: Tripanocidal activity: percentual of lysis of blood tripomastigote forms in infected mouse blood
Type: cell-based
Conditions: for killing at 25 µg/mL / IC50 / killing at 50 µg/mL: Trypanosoma cruzi; for killing at 25 µg/mL: read-out: % lysis; for anti-Chagas activity: statement in words
Procedure: Evaluation of the tripanocidal activity was made by checking percentual of lysis from blood tripomastigote forms of different lines of Trypanosoma cruzi, isolated from […] of mice on the parasitemic peak. Biological essays have been made on 200 μl titration microplaques containing about […] forms of the parasite in each milliliter of used blood. Substance concentrations as used for evaluation were of 10, 25 and 50 μg/ml, which were solubilized under PBS buffer containing 5% dimethyl sulfoxide. After adding substances, infected blood has been incubated at 4° C. under constant shaking for a 24-hour period. After that period, the quantity of parasites surviving to the action of substances was counted in an optical microscope and in comparison to the negative control group (infected blood, adding the solution used to solubilized substances), calculations concerning the determination of lysis percentual have been made. As a positive control, gentian violet has been used under concentration of 250 μg/ml, as indicated for chemoprophylaxis. All essays have been made in triplicate.
The biological activity protocol as described above is already fully published and used in the scientific field, being therefore standardized regarding tripanocidal activity (chemoprophylaxis and susceptibility evaluation for the parasite).
Various scientific works using this method, which is even presented in the original evaluation work for the biological activity of cubebin, as published by Bastos and contributors in 1999.

[1] = 50 μg/ml, infected blood, 4° C., 24 h
[2] = 25 μg/ml, infected blood, 4° C., 24 h
[3] = lysis of blood tripomastigotes, 24 h at 4° C., read-out: IC50

Structure (SMILES)	% lysis [1]	killing at 25 µg/mL [2]	IC50 [3]	anti-Chagas activity	% lysis (250 μg/ml (positive control), infected blood, 4° C., 24 h)	killing at 25 µg/mL (24 h)	killing at 50 µg/mL [1]	IC50 (24 h)
CC(=O)OC1OC[C@H](Cc2ccc3c(c2)OCO3)[C@H]1Cc1ccc2c(c1)OCO2 (stereo partly drawn) [O-acetyl cubebin, O-acetyl Cubebin]	50/100%	76.2%	16.9 µg/mL (≈ 42.4 µM)	bear anti-Chagas activity				
CN(C)c1ccc(C(=C2C=CC(=[N+](C)C)C=C2)c2ccc(N(C)C)cc2)cc1 [Gentian violet, gentian violet, reference compound]			76 µg/mL		250/100%			
O=C1OC[C@H](Cc2cc3c(cc2[N+](=O)[O-])OCO3)[C@H]1Cc1cc2c(cc1[N+](=O)[O-])OCO2 [6,6′-Dinitrohinokinin, 6, 6′-Dinitrohinokinin]			37.1 µg/mL (≈ 83.5 µM)	bear anti-Chagas activity		57.6%	82.8%	
CN(C)CCOC1OC[C@H](Cc2ccc3c(c2)OCO3)[C@H]1Cc1ccc2c(c1)OCO2 (single isomer, unassigned; (-)) [O-dimethylethylamine cubebin, (−)-O-dimethylethylamine-cubebin]	50/100%	90.1%	3 µg/mL (≈ 7.02 µM)	bear anti-Chagas activity				
COc1ccc(C[C@H]2C(=O)OC[C@@H]2Cc2ccc3c(c2)OCO3)cc1OC [Metilpluviatolide, methylpluviatolide]	50/100%			bear anti-Chagas activity		99%		1.3 µg/mL (≈ 3.51 µM)
COC1OC[C@H](Cc2ccc3c(c2)OCO3)[C@H]1Cc1ccc2c(c1)OCO2 (stereo partly drawn) [O-methyl cubebin, O-methyl Cubebin]		13.9%	86.3 µg/mL (≈ 233 µM)	bear anti-Chagas activity			62%	
O=C1OC[C@H](Cc2ccc3c(c2)OCO3)[C@H]1Cc1ccc2c(c1)OCO2 [Hinokinin]		80.1%	0.9 µg/mL (≈ 2.54 µM)	bear anti-Chagas activity			95.4%	
OC1OC[C@H](Cc2ccc3c(c2)OCO3)[C@H]1Cc1ccc2c(c1)OCO2 (stereo partly drawn) [Cubebin, cubebin]		7.3%	97.6 µg/mL (≈ 274 µM)	bear anti-Chagas activity			52.3%	
